Data published in ChEMBL document CHEMBL1201862, “PubChem BioAssay data set” (2004).
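Grown in 96-well plates, cells were treated for 48 hours with each compound at five concentrations. Insufficient inhibition: endpoint recorded as highest concentration tested. GI50 marks 50% less growth.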 Calls of active or inactive are those of the source. Cut-off read from the data, not from the text of the source: active = GI50 up to about 1.1 µM and inactive = higher.

What was measured:
Experiment in all cases: NCI tumour cell line growth inhibition, 48 h
DU-145 = test system: DU-145
NCI/ADR-RES = test system: NCI/ADR-RES
T47D = test system: T47D
Hs-578T = test system: Hs-578T
HCT-15 = test system: HCT-15
SK-MEL-2 = test system: SK-MEL-2
SNB-19 = test system: SNB-19
SF-295 = test system: SF-295
SR = test system: SR
RPMI-8226 = test system: RPMI-8226
786-0 = test system: 786-0
TK-10 = test system: TK-10
MDA-N = test system: MDA-N
OVCAR-8 = test system: OVCAR-8
RXF 393 = test system: RXF 393
HT-29 = test system: HT-29
K562 = test system: K562
OVCAR-5 = test system: OVCAR-5
COLO 205 = test system: COLO 205
PC-3 = test system: PC-3
NCI-H522 = test system: NCI-H522
BT-549 = test system: BT-549
ACHN = test system: ACHN
IGROV-1 = test system: IGROV-1
SF-539 = test system: SF-539
SW-620 = test system: SW-620
SK-OV-3 = test system: SK-OV-3
SK-MEL-5 = test system: SK-MEL-5
HCT-116 = test system: HCT-116
MOLT-4 = test system: MOLT-4
NCI-H226 = test system: NCI-H226
NCI-H460 = test system: NCI-H460
LOX IMVI = test system: LOX IMVI
UO-31 = test system: UO-31
HOP-62 = test system: HOP-62
UACC-257 = test system: UACC-257
MCF7 = test system: MCF7
MDA-MB-435 = test system: MDA-MB-435
SN12C = test system: SN12C
CAKI-1 = test system: CAKI-1
HL-60 = test system: HL-60
OVCAR-3 = test system: OVCAR-3
UACC-62 = test system: UACC-62
EKVX = test system: EKVX
CCRF-CEM = test system: CCRF-CEM
SNB-75 = test system: SNB-75
A549 = test system: A549
KM12 = test system: KM12
SF-268 = test system: SF-268
Malme-3M = test system: Malme-3M
M14 = test system: M14
OVCAR-4 = test system: OVCAR-4
SK-MEL-28 = test system: SK-MEL-28
MDA-MB-231 = test system: MDA-MB-231
U-251 = test system: U-251
A498 = test system: A498
HOP-92 = test system: HOP-92
NCI-H23 = test system: NCI-H23
HCC 2998 = test system: HCC 2998

COc1nc2c(c(=O)n1C)N[C@H]1[C@H](OC(C)=O)[C@@H](OC(C)=O)CO[C@H]1N2
GI50 (DU-145): > 100 µM (inactive) | GI50 (NCI/ADR-RES): > 100 µM (inactive) | GI50 (T47D): > 100 µM (inactive) | GI50 (Hs-578T): > 100 µM (inactive) | GI50 (HCT-15): > 100 µM | GI50 (SK-MEL-2): > 100 µM (inactive) | GI50 (SNB-19): > 100 µM (inactive) | GI50 (SF-295): > 100 µM (inactive) | GI50 (SR): > 100 µM (inactive) | GI50 (RPMI-8226): > 100 µM (inactive) | GI50 (786-0): > 100 µM (inactive) | GI50 (TK-10): > 100 µM (inactive) | GI50 (MDA-N): > 100 µM (inactive) | GI50 (OVCAR-8): > 100 µM (inactive) | GI50 (RXF 393): > 100 µM (inactive) | GI50 (HT-29): > 100 µM (inactive) | GI50 (K562): > 100 µM (inactive) | GI50 (OVCAR-5): > 100 µM (inactive) | GI50 (COLO 205): > 100 µM (inactive) | GI50 (PC-3): > 100 µM (inactive) | GI50 (NCI-H522): > 100 µM (inactive) | GI50 (BT-549): > 100 µM (inactive) | GI50 (ACHN): > 100 µM (inactive) | GI50 (IGROV-1): > 100 µM (inactive) | GI50 (SF-539): > 100 µM (inactive) | GI50 (SW-620): > 100 µM (inactive) | GI50 (SK-OV-3): > 100 µM (inactive) | GI50 (SK-MEL-5): > 100 µM (inactive) | GI50 (HCT-116): > 100 µM (inactive) | GI50 (MOLT-4): > 100 µM (inactive) | GI50 (NCI-H226): > 100 µM (inactive) | GI50 (NCI-H460): > 100 µM (inactive) | GI50 (LOX IMVI): > 100 µM (inactive) | GI50 (UO-31): > 100 µM (inactive) | GI50 (HOP-62): > 100 µM (inactive) | GI50 (UACC-257): > 100 µM (inactive) | GI50 (MCF7): > 100 µM (inactive) | GI50 (MDA-MB-435): > 100 µM (inactive) | GI50 (SN12C): > 100 µM (inactive) | GI50 (CAKI-1): > 100 µM (inactive) | GI50 (HL-60): > 100 µM (inactive) | GI50 (OVCAR-3): > 100 µM (inactive) | GI50 (UACC-62): > 100 µM (inactive) | GI50 (EKVX): > 100 µM (inactive) | GI50 (CCRF-CEM): > 10 µM (inactive) | GI50 (SNB-75): > 100 µM (inactive) | GI50 (A549): > 100 µM (inactive) | GI50 (KM12): > 100 µM (inactive) | GI50 (SF-268): > 100 µM (inactive) | GI50 (Malme-3M): > 100 µM (inactive) | GI50 (M14): > 100 µM (inactive) | GI50 (OVCAR-4): > 100 µM (inactive) | GI50 (SK-MEL-28): > 100 µM (inactive) | GI50 (MDA-MB-231): > 100 µM (inactive) | GI50 (U-251): > 100 µM (inactive) | GI50 (A498): > 100 µM (inactive) | GI50 (HOP-92): > 100 µM (inactive)

COC(C)(C)/C=C/c1[nH]c2ccccc2c1CC(=O)NCCc1cn(C(c2ccccc2)(c2ccccc2)c2ccccc2)cn1
GI50 (DU-145): > 31.6 µM (inactive) | GI50 (NCI/ADR-RES): 5.12 µM (inactive) | GI50 (T47D): 2.71 µM (inactive) | GI50 (Hs-578T): 7.1 µM (inactive) | GI50 (HCT-15): 4.25 µM | GI50 (SK-MEL-2): 2.64 µM (inactive) | GI50 (SNB-19): 7.5 µM (inactive) | GI50 (SF-295): 4.7 µM (inactive) | GI50 (SR): 2.23 µM (inactive) | GI50 (RPMI-8226): 2.39 µM (inactive) | GI50 (786-0): 4.72 µM (inactive) | GI50 (TK-10): 5.46 µM (inactive) | GI50 (MDA-N): 4.33 µM (inactive) | GI50 (OVCAR-8): 4.99 µM (inactive) | GI50 (RXF 393): 7.16 µM (inactive) | GI50 (HT-29): 2.71 µM (inactive) | GI50 (K562): 3.17 µM (inactive) | GI50 (OVCAR-5): 3.66 µM (inactive) | GI50 (COLO 205): 2.02 µM (inactive) | GI50 (PC-3): 3.44 µM (inactive) | GI50 (NCI-H522): 3.66 µM (inactive) | GI50 (NCI-H23): 4.41 µM (inactive) | GI50 (BT-549): 7.87 µM (inactive) | GI50 (ACHN): 4.53 µM (inactive) | GI50 (IGROV-1): 5.4 µM (inactive) | GI50 (SF-539): 4.13 µM (inactive) | GI50 (SW-620): 4.23 µM (inactive) | GI50 (SK-MEL-5): 2.92 µM (inactive) | GI50 (HCT-116): 4.12 µM (inactive) | GI50 (MOLT-4): 2.36 µM (inactive) | GI50 (NCI-H226): 3.65 µM (inactive) | GI50 (NCI-H460): 2.62 µM (inactive) | GI50 (LOX IMVI): 4.82 µM (inactive) | GI50 (UO-31): 5.77 µM (inactive) | GI50 (HOP-62): 5.92 µM (inactive) | GI50 (UACC-257): 4.02 µM (inactive) | GI50 (MCF7): 3.66 µM (inactive) | GI50 (MDA-MB-435): 3.62 µM (inactive) | GI50 (SN12C): 3.41 µM (inactive) | GI50 (CAKI-1): 15.9 µM (inactive) | GI50 (HL-60): 2.92 µM (inactive) | GI50 (OVCAR-3): 4.92 µM (inactive) | GI50 (HCC 2998): 0.0272 µM (active) | GI50 (UACC-62): 6.44 µM (inactive) | GI50 (EKVX): 3.44 µM (inactive) | GI50 (CCRF-CEM): 3.68 µM (inactive) | GI50 (A549): 3.71 µM (inactive) | GI50 (KM12): 4.22 µM (inactive) | GI50 (SF-268): 7.91 µM (inactive) | GI50 (Malme-3M): 3.76 µM (inactive) | GI50 (M14): 4.53 µM (inactive) | GI50 (OVCAR-4): 4.9 µM (inactive) | GI50 (SK-MEL-28): 9.77 µM (inactive) | GI50 (MDA-MB-231): 4.72 µM (inactive) | GI50 (U-251): 4.45 µM (inactive) | GI50 (A498): 3.25 µM (inactive) | GI50 (HOP-92): 5.33 µM (inactive)
